Tests used:
[1] = Plasma protein binding, equilibrium dialysis, mouse plasma; type: in vitro ADME; conditions: 5 hours at 37° C., read-out: PPB % bound Mouse (converted)
Procedure: (§1) The compounds of interest were evaluated for various PK parameters. Specifically CACO permeability/efflux and plasma protein binding (PPP) were determined. Stock solutions were prepared at 10 mM in DMSO for test and reference compounds. Aliquots of the stock solution were diluted to 500× of final concentration (0.5 mM) with DMSO, then further diluted upon the addition of bank PE3-buffer to 20× of final concentration (20 μM). Then test and reference compounds were prepared in plasma at 1 μM. For 0 hour incubation: 25 μL of the plasma spiked with test and reference compounds was transferred into a 96-well sample preparation plate, and then 25 μL blank PB-buffer was added. The samples were quenched by 200 μL of IS solution to prepare [Initial]0h samples. For 5 hours incubation: 100 μL of the plasma spiking with test and reference compounds was loaded on donor side, and 100 μL of blank PB-buffer were loaded on receiver side of the equilibrium dialysis device. Samples were incubated in an air-bath shaker (60 rpm) for 5 hours at 37° C. After 5 hours incubation, 25 μL of samples (from both the donor sides and receiver sides of the dialysis apparatus) was aspirated and added into new sample preparation plates, separately. 25 μL of blank PB-buffer was added to donor side samples and 25 μL of blank plasma was added to receiver side samples to balance the matrix. The samples were quenched with 200 μL of IS solution. The assay plate was shaken at the vibrator (Hangzhou Allsheng, MX100-4A) for 10 min (600 rpm) and then centrifuged at 5,594×g for 15 min (Thermo Multifuge×3R). An aliquot of the 50 μL supernatant was taken from each well and diluted by 50 μL distilled water, then analyzed by UPLC-MS/MS.

[2] = Plasma protein binding, equilibrium dialysis, human plasma; type: in vitro ADME; conditions: 5 hours at 37° C., read-out: PPB % bound Human (converted)
Procedure: as §1

[3] = system: sumoylation levels (SUMO 2/3 conjugates) in HCT-116 cells; assay: HCT-116 4 Hour Cell Assay (Western, SUMO 2/3 conjugates); type: cell-based; conditions: Homo sapiens, HCT-116, 4 h, 4 h treatment, Anti-Sumo 2-3 immunoblot, read-out: HCT-116 Western 4 h IC50 (μM) Ave
Method in brief: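 Cells treated 4 h with 11 three-fold dilutions from 25 μM; lysed in RIPA with NEM and Benzonase. Non-reducing SDS-PAGE immunoblot with anti-SUMO 2/3 mAb, IRDye fluorescent detection; conjugate signal normalized to total protein stain, IC50 from quantified bands.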

[4] = Plasma protein binding, equilibrium dialysis, dog plasma; type: in vitro ADME; conditions: 5 hours at 37° C., read-out: PPB % bound Dog (converted)
Procedure: as §1

| Compound | fraction unbound at 5 h, 1 μM [1] | fraction unbound at 5 h, 1 μM [2] | IC50 [3] [µM] | fraction unbound at 5 h, 1 μM [4] |
| --- | --- | --- | --- | --- |
| C=CC(=O)N1Cc2sc(C#N)c(C)c2[C@H](c2cccc(F)c2-c2cn(CC)nc2C(F)(F)F)C1 [Compound 222] | 0.005 | 0.008 | 0.0974 | 0.001 |
| CCn1cc(-c2c(F)cccc2[C@@H]2CN(C(=O)/C=C/CN(C)C)Cc3sc(C#N)c(C)c32)c(C(F)(F)F)n1 [Example 46, (S, E)-6-(4-(dimethylamino)but-2-enoyl)-4-(2-(1-ethyl-3-(trifluoromethyl)-1 H-pyrazol-4-yl)-3-fluorophenyl)-3-methyl-4,5,6,7-tetrahydrothieno[2,3-c]pyridine-2-carbonitrile] | 0.013 | 0.028 | 0.0953 | 0.008 |
| CCn1cc(-c2c(F)cccc2[C@@H]2CN(C(=O)/C=C/CNC)Cc3sc(C#N)cc32)c(C(F)(F)F)n1 [Example 50] | 0.039 | 0.033 | 0.157 | 0.02 |

Source: patent US20240360148A1 (SUVALENT THERAPEUTICS, INC., priority 2021, published 2024)
